Several values for one entry are separate records, joined by “and”; a condition that tells them apart may be missing. Equal entries are not always repeated.
Key:
[1] = target: T1, glycine B site (Rattus norvegicus, UniProt P35439); experiment: Binding of [^3 H]-glycine to rat brain membranes (glycine B site); set-up: species or system rat (Wistar); conditions: [^3 H]-glycine 10 nM, 20 minutes at 4° C., concentration inhibiting radioligand binding by 50%
T1 construct: from tissue; host or cells: rat brain without cerebellum (Wistar males), Triton-treated membranes
Description: (§1) Preparation of the membranes (according to Yoneda et al., J. Neurochem., 55, 1, 237-244, 1990)
(§2) The membranes are prepared and used in the same way for both radioligands. The buffers are prepared with sterile Milli-Q water (Millipore) which is deionized and filtered, just before use, on a nitrocellulose filter (0.45 μm).
(§3) After dissection, the brains from rats (Wistar males, 240-260 g), freed from the cerebellum, are placed in an ice-cold buffer comprising Tris-acetate (1 mM), EGTA (1 mM) and sucrose (320 mM) at pH 7. The brains are milled and then homogenized using a polytron. The suspension is centrifuged for 10 minutes at 1000 g and the supernatent containing the membranes is recovered and recentrifuged for 20 minutes at 35000 g. The pellet, freed from a brown ring, is recovered in a lysis buffer comprising Tris-acetate (1 mM) and EGTA (1 mM) at pH 8. The suspension is then left for 15 minutes at 4° C. and is then centrifuged for 20 minutes at 35000 g. The pellet is recovered in a Tris-acetate (50 mM) buffer at pH 7.4 containing 0.08% Triton and left for 30 minutes at 4° C.
(§4) After two successive centrifugings, the pellet is taken up in Tris-acetate (50 mM) buffer at pH 7.4, divided into aliquots and stored at -80° C. On the day of the experiment, at most 3 weeks after the preparation, the membranes are washed twice with Tris-acetate (50 mM) buffer at pH 7.4.
(§5) Binding experiments (according to Yoneda et al., J. Neurochem., 60, 2, 634-645, 1993)
(§6) The free and bound radioligands are separated on GF/B filters, preimpregnated with PEI (0.1%), using a Brandle filtration device. […] Each filter is rinsed 3 times. The radioactivity is measured using a β-counter (Tricarb 1500, Packard) and expressed in dpm. The curves obtained are analyzed using GraphPad Prism software (non-linear regression).

[2] = test system: NMDA channel; experiment: Binding of [^3 H]-MK 801 to rat brain membranes (NMDA channel), stimulation or inhibition; set-up: species or system rat (Wistar); conditions: for ME (maximum effect) on [^3 H]-MK 801 binding: with respect to a base of 0%, + = stimulation, - = inhibition; for IC50: read-out: IC50, [^3 H]-MK 801 binding, [^3 H]-MK 801 1 nM, 120 minutes at 20° C., antagonists; for activity at glycine B receptor (in words): agonist character
Description: as §1, §2, §3, §4, §5, §6
The opening of the channel of the NMDA receptor complex is modulated positively by the glycinergic site.

IC50 [1]	ME (maximum effect) on [^3 H]-MK 801 binding ([2]; at 100 μM) [%]	IC50 [2] [µM]	IC50 ([1]; listed as compound of the invention) [µM]	ME (maximum effect) on [^3 H]-MK 801 binding ([2]; at 10 μM)	ME (maximum effect) on [^3 H]-MK 801 binding ([2]; at 10 μM, listed as compound of the invention) [%]	activity at glycine B receptor (in words) ([2]; qualitative, listed as compound of the invention)	activity at glycine B receptor (in words) ([2]; qualitative, listed as compound of the present invention)	effect on binding of [^3 H]-MK 801 (in words) ([2]; rat brain membranes, qualitative)	ME (maximum effect) on [^3 H]-MK 801 binding ([2]; at 1 μM) [%]	SMILES
7.3 µM	-85 ± 7	6.73	–	–	–	–	–	–	–	N[C@@H]1CCN(O)C1=O [(+)-HA966]
6.81 ± 0.545 µM	–	–	6.8	+46 ± 3%	46	behaves as an agonist	powerful partial agonist	stimulates the binding of [^3 H]-MK 801	–	O=C1CNCN1O [Example 1, 3-Hydroxy-4-imidazolidinone]
0.026 µM and ~0.026 µM	–	0.022	–	–	–	–	–	–	-91 ± 3	O=c1[nH]c2cc(Cl)ccc2c(O)c1-c1cccc(Oc2ccccc2)c1 [L 701,324]

— patent US5677325A, “4-imidazolidinone compound” (Adir Et Compagnie, priority 1995, dated 1997)
